The source of these data is publication PMC12388504, “Antiparasitic Effect of Polyphenols and Terpenes from Natural Products Against Trypanosoma cruzi and Leishmania mexicana” (Metabolites, 2025).

Usually IC50 stands for the midpoint of a concentration-inhibition curve. The CC50 is the concentration that lowers cell viability or growth by half.

Read-outs that look alike come from different tables or passages of the source. Bounds are passed on as bounds.

In one data set the test system is T. cruzi. The note with it: cited from earlier work.
The test system of data set [1] is T. cruzi epimastigotes NINOA strain. The experiment in a line: Anti-Trypanosoma cruzi activity, epimastigotes NINOA strain (MTT). It counts as cell-based. Particulars: for IC50: 48 h, read-out: T. cruzi IC50 NINOA. The procedure:
(§1) Epimastigotes from A1 and the NINOA strains were used to evaluate the trypanocidal activity. Both strains were maintained in liver infusion tryptose (LIT) medium, supplemented with 10% heat-inactivated FBS and 100 U/mL of penicillin plus 100 μg/mL of streptomycin. They were preserved by transferring 1 × 10^6 parasites/mL into a new culture medium every week. […] All compounds were initially prepared at 10 mg/mL, using dimethyl sulfoxide (DMSO) 0.2% as diluent. […] T. cruzi epimastigotes (1 × 10^6/well) were cultured in 96-well microliter plates and incubated for 48 h at 28 °C with the drugs at different concentrations in a final volume of 200 μL. DMSO 0.2% was included as a negative control. […] All assays were carried out in triplicate. The IC50 values were determined by Probit analysis.

Data set [2] relates to T. cruzi epimastigotes A1 strain. Kind of data set: Anti-Trypanosoma cruzi activity, epimastigotes A1 strain (MTT). It counts as cell-based. The note with it: for IC50: 48 h. The procedure: as §1
The subject of data set [3] is L. mexicana promastigotes FCQEPS native isolate. Kind of data set: Anti-Leishmania mexicana activity, promastigotes FCQEPS native isolate (MTT). It counts as cell-based. Particulars: 48 h, read-out: L. mexicana IC50 FCQEPS. The procedure:
(§2) The IC50 was determined using the Probit statistical tool. Each sample was assayed in triplicate in three independent experiments.

Data set [4] in a line: Cytotoxic analysis against J774.2 macrophages (MTT). The note with it: mouse. The procedure:
(§3) The assay was performed on mouse macrophages from the J774.2 cell line that were cultured in RPMI medium supplemented with 10% SFB, […] penicillin, […] streptomycin, and glutamine (2 mM) at 37 °C and in a 5% CO2 atmosphere. The medium was replaced at 2–3-day intervals. […] Cells in the presence of the maximum concentration of DMSO (0.2%) were included as a negative control; the metabolic activity of the cells was determined following the MTT method. The percentage of cell viability was calculated, and the half-maximal cytotoxic concentration (CC50) was determined by Probit analysis. Three independent assays were performed in triplicate each.

For data set [5], the system named is L. mexicana promastigotes MNYC/BZ/62/M379 (M379) strain. The experiment in a line: Anti-Leishmania mexicana activity, promastigotes M379 reference strain (MTT). The data set is classed as cell-based. The note with it: for IC50: 48 h, read-out: L. mexicana IC50 M379. The method, then:
as §2

Data set [6] concerns J774.2 macrophage cell line. Kind of data set: Cytotoxic analysis against J774.2 macrophages (MTT). The note with it: for cytotoxicity (in words): J774.2 macrophages. The procedure:
as §3

Data set [7] has as its system Tulahuén strain of T. cruzi. On the set-up: method as in PMID 35698116. The note with it: in words; cited from earlier work.
[8] abbreviates: Trypanosoma cruzi, epimastigotes, NINOA strain, MTT.
[9] abbreviates: Trypanosoma cruzi, epimastigotes, A1 strain, MTT, read-out: T. cruzi IC50 A1.
[10] abbreviates: Leishmania mexicana, promastigotes, FCQEPS native isolate, MTT.
The mark [11] stands for this setting: Leishmania mexicana, promastigotes, M379 strain, MTT.
[12] abbreviates: promastigotes, FCQEPS native isolate, MTT.
The mark [13] stands for this setting: Trypanosoma cruzi, read-out: T. cruzi IC50 A1, epimastigotes, A1 strain, 48 h, MTT.

Take `CC1CCC(C(C)C)C(O)C1` (racemic) [dl-menthol]: the IC50 in the data set on T. cruzi (dl-menthol) was 173 µM.
As to `O=C(Cn1ccnc1[N+](=O)[O-])NCc1ccccc1` [Bzn, Benznidazole, reference compound], the values for the IC50 in data set [1] (setting [8]) and in data set [2] (setting [9]) were 39.08 ± 0.1 µM and 30.3 ± 0.03 µM, respectively.
Turning to `OCc1ccccc1` [Compound 1, benzyl alcohol], the concentration for half-maximal inhibition (IC50) in data set [1] (setting [8]) is over 200 µM; in data set [3] (setting [10]), 104 ± 0.3 µM; in data set [2] (setting [9]) it was 62.28 ± 0.2 µM; in data set [5] (setting [11]), over 200 µM. This compound displayed a CC50 at 48 h in data set [4] (J774.2 macrophage cells) of 26.5 ± 2.1 µM.
Consider `Cc1ccc(CO)cc1` [Compound 2, 4-methylbenzyl alcohol], for which the IC50 is 51.85 ± 0.01 µM in data set [1] (setting [8]), over 200 µM in data set [3] (setting [10]), 50.4 ± 1.8 µM in data set [2] (setting [9]) and over 200 µM in data set [5] (setting [11]). This compound also yielded a CC50 at 48 h in data set [4] (J774.2 macrophage cells) of over 200 µM.
Consider `Cc1ccccc1CO` [Compound 3, 2-methylbenzyl alcohol], for which the results for the IC50 in data set [1] (setting [8]), in data set [2] (setting [9]) and in data set [5] (setting [11]) were over 200 µM, over 200 µM and 14.2 ± 0.2 µM, respectively. In data set [4] (J774.2 macrophage cells), this compound gave a CC50 at 48 h of 64.2 ± 0.2 µM. The “cytotoxicity (in words)” value in data set [6] is listed as “high cytotoxicity”.
For the compound `OCc1ccc2ccccc2c1` [Compound 5, 2-naphtalenemethanol], the IC50 in data set [1] (setting [8]) was 119 µM; in data set [1] (epimastigotes, NINOA strain, MTT), 125 ± 3.2 µM; in data set [3] (setting [10]), 125 µM; in data set [3] (setting [12]), over 200 µM; in data set [2] (setting [9]) it was over 200 µM; in data set [5] (setting [11]) it was 40.1 ± 4.7 µM. Besides, the CC50 at 48 h in data set [4] (J774.2 macrophage cells) was over 200 µM.
`OCc1ccc2c(c1)OCO2` [Compound 6, piperonyl alcohol]: the half-inhibitory concentration (IC50) in data set [1] (Trypanosoma cruzi) is over 200 µM; in data set [3] (Leishmania mexicana), 49.11 ± 0.1 µM; in data set [2] (setting [13]), over 200 µM; in data set [5] (Leishmania mexicana) it was 23.61 ± 0.2 µM. Moreover, the midpoint of cytotoxicity in data set [4], the CC50 at 48 h, lay at 62.2 ± 3.2 µM.
Consider `OCCc1ccccc1` [Compound 7, phenethyl alcohol], for which the IC50 in data set [1] (setting [8]) is 48.24 ± 0.3 µM; in data set [3] (setting [10]), 42.24 ± 0.1 µM; in data set [2] (setting [9]), over 200 µM; in data set [5] (setting [11]), 21.7 ± 1.7 µM. In data set [4] (J774.2 macrophage cells), half-maximal cytotoxicity (CC50 at 48 h) was put at 89.6 µM. Further, the “cytotoxicity (in words)” value in data set [6] is “high cytotoxicity”.
With `COc1ccc(CCO)cc1` [Compound 8, 4-methoxyphenethyl alcohol], the IC50 in data set [1] (setting [8]) was over 200 µM; in data set [3] (setting [10]), over 200 µM; in data set [2] (setting [9]) it was over 200 µM; in data set [5] (setting [11]), 52.08 ± 0.5 µM. The “trypanocidal activity NINOA strain (in words)” value in data set [1] (epimastigotes, NINOA strain) was “no biological activity”. The compound further registered a CC50 at 48 h in data set [4] (J774.2 macrophage cells) of over 200 µM.
`OCC=Cc1ccccc1` [Compound 9, cinnamyl alcohol]: the IC50 in data set [1] (setting [8]) was over 200 µM; in data set [3] (setting [10]), 29.06 ± 0.1 µM; in data set [2] (setting [9]) it was 22.12 ± 0.2 µM; in data set [5] (setting [11]), 12.1 ± 0.2 µM. In data set [1] (epimastigotes, NINOA strain), the “trypanocidal activity NINOA strain (in words)” value is “no biological activity”. For the same compound, in data set [4] (J774.2 macrophage cells), the CC50 at 48 h worked out at 47.35 ± 0.1 µM. Moreover, the “cytotoxicity (in words)” value in data set [6] is recorded as “high cytotoxicity”.
For the compound `CC(C)=CCO` [Compound 10, prenol], the IC50 in data set [1] (setting [8]) is 27.3 ± 1 µM; in data set [3] (setting [10]) it was over 200 µM; in data set [2] (setting [9]), over 200 µM; in data set [5] (setting [11]), over 200 µM. This compound showed a CC50 at 48 h in data set [4] (J774.2 macrophage cells) of over 200 µM. In data set [5] (promastigotes, M379 strain), the “leishmanicidal activity M379 strain (in words)” value is reported as “did not have leishmanicidal activity”.
Turning to `CC(C)=CCCC(C)CCO` (stereo not drawn) [Compound 11, β-citronellol], the IC50 in data set [1] (setting [8]) was 53.6 ± 3.3 µM; in data set [3] (setting [10]) it was over 200 µM; in data set [2] (setting [9]), 21.54 ± 0.2 µM; in data set [5] (setting [11]), 71 ± 1 µM. In data set [4] (J774.2 macrophage cells), this compound had a CC50 at 48 h of over 200 µM.
Regarding `CC(C)=CCC/C(C)=C/CO` [Compound 12, geraniol], the IC50 in data set [1] (setting [8]) was 41 ± 1.2 µM; in data set [3] (setting [10]), over 200 µM; in data set [2] (setting [9]) it was 125 ± 5.5 µM; in data set [5] (setting [11]), 57 ± 5.1 µM. The compound further yielded a CC50 at 48 h in data set [4] of over 200 µM.
In the case of `CC(C)=CCC/C(C)=C\CO` [Compound 13, nerol], the IC50 in data set [1] (Trypanosoma cruzi) was 58.3 ± 0.3 µM; in data set [3] (Leishmania mexicana) it was over 200 µM; in data set [2] (setting [13]), 125 µM; in data set [2] (read-out: T. cruzi IC50 A1, epimastigotes, A1 strain, MTT), 65.7 ± 3.1 µM; in data set [5] (Leishmania mexicana), 106 ± 6 µM. The CC50 at 48 h in data set [4] was over 200 µM.
For `CC(C)[C@H]1CC[C@H](C)C[C@@H]1O` [Compound 14, l-(-)-menthol], the IC50 in data set [1] (setting [8]) was 24.5 ± 0.7 µM; in data set [3] (setting [10]) it was over 200 µM; in data set [2] (setting [9]), over 200 µM; in data set [5] (setting [11]) it was 81.5 ± 4.7 µM. In addition, the “trypanocidal activity A1 strain (in words)” value in data set [2] (epimastigotes, A1 strain) is “no biological activity”. The “trypanocidal activity against the Tulahuén strain” value in data set [7] was “null trypanocidal activity”. The CC50 at 48 h in data set [4] (J774.2 macrophage cells) is over 200 µM.
In the case of `C=C(C)[C@H]1CC=C(CO)CC1` [Compound 15], the IC50 is over 200 µM in data set [1] (setting [8]), over 200 µM in data set [3] (setting [10]), over 200 µM in data set [2] (setting [9]) and 34.4 ± 2.8 µM in data set [5] (setting [11]). Further, the “trypanocidal activity A1 strain (in words)” value in data set [2] (epimastigotes, A1 strain) is “no biological activity”. Moreover, in data set [4] (J774.2 macrophage cells), the CC50 at 48 h is over 200 µM.
Regarding `CC1=CC[C@@H](C(C)(C)O)CC1` [Compound 16, α-terpineol], the IC50 was over 200 µM in data set [1] (setting [8]), 75.57 ± 0.03 µM in data set [3] (setting [10]), 14 ± 0.2 µM in data set [2] (setting [9]) and 14 ± 0.2 µM in data set [5] (setting [11]). It took 63.4 ± 0.9 µM to reach half-maximal cytotoxicity in data set [4] (CC50 at 48 h).
Regarding `OC1CCCC1` [Compound 18, cyclopentyl alcohol], the IC50 is over 200 µM in data set [1] (setting [8]), 125.4 ± 0.2 µM in data set [3] (setting [10]), 10.83 ± 0.1 µM in data set [2] (setting [9]) and 5.48 ± 0.1 µM in data set [5] (setting [11]). In data set [4] (J774.2 macrophage cells), this compound returned a CC50 at 48 h of 24.4 ± 3.2 µM.
Turning to `CNC[C@H](O)[C@@H](O)[C@H](O)[C@H](O)CO.[O]=[Sb](=[O])[OH]` [Glu, Glucantime, reference compound], the IC50 in data set [3] (setting [12]) was 134 ± 4.3 µM; in data set [5] (promastigotes, M379 strain, MTT) it was over 200 µM. The CC50 in data set [6] (read-out: Cytotoxicity CC50 J774.2, mouse macrophages J774.2, 48 h, MTT) is over 273 µM.
Regarding `CC1CS(=O)(=O)CCN1/N=C/c1ccc([N+](=O)[O-])o1` (stereo not shown) [Nfx, Nifurtimox, reference compound], the IC50 in data set [1] (setting [8]) turned out to be 19.3 ± 0.1 µM; in data set [2] (setting [9]), 7.09 ± 0.1 µM.
`Oc1ccc(/C=C/c2cc(O)cc(O)c2)cc1` [resveratrol]: in the data set with T. cruzi (resveratrol), the IC50 was 40 µM.
